Measurements reported in patent US20110190492A1, “DIAGNOSTIC PROBE FOR CONFORMATION DISEASE” (TOHOKU UNIVERSITY, priority 2005, published 2011).

Key:
amyloid β protein = target: T1, amyloid β protein (Homo sapiens, UniProt P05067); test: Staining test on a brain section of an Alzheimer disease patient (amyloid β protein); type: binding, human (Alzheimer disease patient); details: 100 μM compound in 50% ethanol, 10 minutes, fluorescence microscopy
T1 construct: from tissue; host or cells: paraffin-embedded human brain sections (temporal lobe, hippocampus) of Alzheimer disease patients
From the text: (1) Brain specimens at the temporal lobe and the hippocampus of patients to which a definitive diagnosis of Alzheimer disease had been given, and those of normal senile persons were used. The specimens were given by our coworker, Fukushimura Hospital, Longevity Medicine Institute, and we were given their consent of use of the specimens for our study purpose by the bereaved of the patients (Fukushimura Hospital Ethical Review Board Approval No. 20).
(2) The paraffin-embedded brain tissue was cut into slices having a thickness of 6 μm or 8 μm, and extended and dried on a slide. The paraffin brain section was processed for paraffin removal in xylene twice for 10 minutes, 100% ethanol twice for 5 minutes, 90% ethanol for 5 minutes and running water for 10 minutes in that order.
(3) For pretreatment prior to the staining treatment with a compound of the invention, the sections were processed for autofluorescence removal with lipofuscin. First, the paraffin-removed sections were dipped in 0.25% KMnO4 solution for 20 minutes. These were washed with PBS, twice for 2 minutes, then dipped in 0.1% K2S2O5/oxalic acid solution for about 5 seconds, and then further washed with PBS, three times for 2 minutes.
(4) About 150 μl of a 100 μM solution of a compound of the invention dissolved in 50% ethanol was dropwise applied to the section and reacted for 10 minutes. After dipped five times in tap water, the section was entrapped with Fluor Save Reagent (Calbiochem), and analyzed through microscopy with a fluorescence microscope (Nikon, Eclipse 80i). The images were taken with a digital camera (Nikon Dxm 1200F or Photometrics' Cool SNAP ES).

[1] = tested on: histidine-requiring Salmonella typhimurium TA100 and TA98 strains; test: Mutagenicity test (reverse mutation test); type: cell-based
Method: In view of their use, it is desirable that the compounds of the invention have no mutagenicity or have little mutagenicity to a level causing no problem. For investigating the gene mutagenesis of the compounds of the invention, herein carried out was a reverse mutation test with histidine-requiring Salmonella typhimurium TA100 and TA98 strains. Two tests were carried out. One is a test for dose determination test; and the other is for mutagenicity.
The test methods and the mutagenicity of the compounds of the invention are mentioned below. In the dose determination test, six doses of 0.160, 0.800, 4.00, 20.0, 100 and 500 μg/plate (common ratio 5) were tried.
As a result of the dose determination test, when the mutagenicity of the test compound was admitted, then the actual test for mutagenicity was carried out, using the dose capable of giving an accurate dose-reaction curve. When no mutagenicity of the test compound was admitted in the dose determination test and when the growth inhibition of the test cells was admitted therein, then the dose to present the growth inhibition was taken as the maximum dose; and when the growth inhibition was not admitted, then a dose of 5000 μg/plate was taken as the maximum dose. With that, the actual test for mutagenicity was carried out on the level of 6 doses (common ratio 2).
First, a test compound was dissolved or suspended in DMSO, then diluted in order to prepare test compound liquids having a varying concentration.
100 μl of a test compound liquid or a negative control (DMSO) solution was put into a sterilized test tube. Then, for the case in the absence of a metabolic activation system (−S9mix), 500 μl of 0.1 mol/liter sodium-phosphate buffer (pH 7.4) was added to it; and for the case in the presence of a metabolic activation system (+S9mix), 500 μl of S9mix was added to it.
Next, 100 μl of the test strain suspension that had been cultivated with shaking at 37° C. for 8 hours was added to it, and preincubated in a shaking thermostat at 37° C. for 20 minutes. After shaken, 2 ml of top agar was added to it, and the contents were mixed.
Next, the mixture was poured onto a minimal glucose agar plate medium (plate) and spread uniformly thereon, then the top agar was solidified, and the plate was transferred into a thermostat and incubated at 37° C. for 48 hours.
Then, the number of the colonies grown through reverse mutation was counted.
For counting it, […]. After area correction and miss-counting correction, the number of the colonies was computed. When the colony analyzer could not be used owing to the deposition of the test compound or the cell growth inhibition, then the number of the colonies was counted with the naked eye.
In case where the number of the colonies through reverse mutation increased two times or more that of the negative control and where the dose dependency or the reproducibility of the increase was admitted, then the tested sample was decided as positive. When the sample was decided as positive, then the relative activity that indicates the relative comparative value of the intensity of the mutagenicity of the test compound was obtained according to the following formula:
Relative Activity={(number of colonies per plate having the concentration)−(number of colonies per negative control plate)}/the value of concentration (mg/plate).

[2] = Acute toxicity test, intravenous administration to mice; type: in vivo; details: mice observed for 7 days
Method: The compounds of the invention were tested for their acute toxicity through intravenous administration thereof to mice. Four Crj:CD1 male mice formed one test group, and some test groups of those mice were used (the mean body weight of the mice of each group was from 31 to 32 g). A test compound was dissolved in a mixture of 1 N HCl, polyethylene glycol-400 and distilled water, or dissolved in DMSO, and then diluted with distilled water. This was administered to each mouse via its tail vein.

[3] = irrespective of the absence or presence of S9mix

T1 sequence (P05067 672-713 limits assumed): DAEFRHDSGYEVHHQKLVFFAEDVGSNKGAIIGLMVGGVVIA

Compound	binding to amyloid β protein in the brain section of an Alzheimer disease patient (amyloid β protein)	other results
N#C/C(=C\c1ccc(N2CCOCC2)o1)c1nc2ccccc2[nH]1 [THK-203, 2-(1H-benzimidazol-2-yl)-3-(5-morpholin-4-yl-furan-2-yl)-acrylonitrile]	bound to the amyloid β protein	
CN1CCN(c2ccc(/C=C(\C#N)c3nc4ccccc4[nH]3)o2)CC1 [THK-207, 2-(1H-benzimidazol-2-yl)-3-[5-(4-methyl-piperazin-1-yl)-furan-2-yl]-acrylonitrile]	bound to the amyloid β protein	
CN(C)c1ccc(/C=C\C=C2C(=O)c3ccccc3C2=O)cc1 [THK-248, 2-[3-(4-dimethylamino-phenyl)-allylidene]-indane-1,3-dione]	bound to the amyloid β protein	
CN(C)c1ccc(-c2nnc(-c3sc4cc(Cl)ccc4c3Cl)o2)cc1 [THK-262, [4-[5-(3,6-dichloro-benzo[b]thiophen-2-yl)-[1,3,4]oxadiazol-2-yl]-phenyl]-dimethylamine]	bound to the amyloid β protein	
O=C1Nc2ccc(Cl)cc2/C1=C/c1ccc(N2CCOCC2)cc1 [THK-276, 5-chloro-3-(4-morpholin-4-yl-benzylidene)-1,3-dihydroindol-2-one]	bound to the amyloid β protein	
C(=C\c1nc2c(ccc3ccccc32)s1)/c1ccc(N2CCOCC2)cc1 [THK-281, 2-[2-(4-morpholin-4-yl-phenyl)-vinyl]naphthol[1,2-d]thiazole]	bound to the amyloid β protein	
CC1(C)c2ccccc2N2CCC(=O)NC21/C=C/c1ccc(N2CCOCC2)cc1 (centres unmarked) [THK-336]		relative activity [1, 3]: minus
FCCOc1ccc2nc(/C=C/c3cnc(N4CCOCC4)s3)oc2c1 [THK-525, 6-(2-fluoro-ethoxy)-2-[2-(2-morpholin-4-yl-thiazol-5-yl)-vinyl]-benzoxazole]	bound to the amyloid β protein	relative activity [1, 3]: minus; Maximum Permissible Dose [2]: ≧10 mg/kg
N#CC(C#N)=Cc1ncc(/C=C/c2nc3ccc(OCC(CO)CF)cc3o2)s1 (centres unmarked) [THK-683]		relative activity [1, 3]: minus
CN1CCN(c2ncc(/C=C/c3nc4ccc(OC(CO)CF)cc4o3)s2)CC1 (centres unmarked) [THK-707, (E)-6-[(1-fluoromethyl-2-hydroxy)ethoxy]-2-[2-[2-(4-methylpiperazin-1-yl)thiazol-5-yl]ethenyl]benzoxazole]		relative activity ([1]; in the presence of S9mix): weak; Maximum Permissible Dose [2]: ≧10 mg/kg
OCC(CF)Oc1ccc2nc(/C=C/c3cnc(N4CCCCC4)s3)oc2c1 (centres unmarked) [THK-713]		relative activity [1, 3]: minus; Maximum Permissible Dose [2]: ≧10 mg/kg
OCC(CF)Oc1ccc2nc(/C=C/c3cnc(N4CCCC4)s3)oc2c1 (centres unmarked) [THK-752, (E)-6-[(1-fluoromethyl-2-hydroxy)ethoxy]-2-[2-[2-(pyrrolidin-1-yl)-thiazol-5-yl]ethenyl]benzoxazole]	The white space arrow indicates amyloid β protein	relative activity [1, 3]: minus; Maximum Permissible Dose [2]: ≧10 mg/kg
OCC(CF)Oc1ccc2nc(/C=C/c3cnc(N4CCCOC4)s3)oc2c1 (centres unmarked) [THK-757, (E)-6-[(1-fluoromethyl-2-hydroxy)ethoxy]-2-[2-[2-([1,3]oxadinan-3-yl)-thiazol-5-yl]ethenyl]benzoxazole]		Maximum Permissible Dose [2]: ≧10 mg/kg
OCC(CF)Oc1ccc2nc(/C=C/c3cnc(N4CCCCCC4)s3)oc2c1 (centres unmarked) [THK-765, (E)-6-[(1-fluoromethyl-2-hydroxy)ethoxy]-2-[2-[2-(homopiperidin-1-yl)thiazol-5-yl]ethenyl]benzoxazole]		Maximum Permissible Dose [2]: ≧10 mg/kg
OCC(CF)Oc1ccc2nc(/C=C/c3cnc(N4CCCOCC4)s3)oc2c1 (centres unmarked) [THK-766, (E)-6-[(1-fluoromethyl-2-hydroxy)ethoxy]-2-[2-(2-homomorpholinothiazol-5-yl)ethenyl]benzoxazole]	The white space arrow indicates amyloid β protein	Maximum Permissible Dose [2]: ≧10 mg/kg

More lines, main results first:

binding to amyloid β protein in the brain section of an Alzheimer disease patient (amyloid β protein)	Compound	other results
bound to the amyloid β protein	Cc1ccc2c(c1)C(C)(C)[C@@]1(/C=C/C=C/c3ccc(N(C)C)cc3)NC(=O)CCN21 (stereo in doubt) [THK-585, 10a-[4-(4-dimethylamino-phenyl)-buta-1,3-dienyl]-8,10,10-trimethyl-3,4,10,10a-tetrahydro-1H-pyrimido[1,2-a]indol-2-one]	
bound to the amyloid β protein	O=C1Nc2ccc(Cl)cc2/C1=C/c1ccc(N2CCOCC2)s1 [THK-308, 5-chloro-3-(5-morpholin-4-yl-thiophen-2-ylmethylene)-1,3-dihydroindol-2-one]	
bound to the amyloid β protein	c1csc(-c2nnc(-c3ccc(N4CCOCC4)cc3)o2)c1 [THK-383, 4-[4-(5-thiophen-2-yl-[1,3,4]oxadiazol-2-yl)-phenyl]-morpholine]	
bound to the amyloid β protein	COc1ccccc1-c1nnc(-c2ccc(N3CCOCC3)cc2)o1 [THK-385]	
bound to the amyloid β protein	CN(C)c1ccc(/C=C/C23NC(=O)CN2c2ccc(Br)cc2C3(C)C)cc1 (centres unmarked) [THK-556, 7-bromo-9a-[2-(4-dimethylamino-phenyl)-vinyl]-9,9-dimethyl-9,9a-dihydro-1H-imidazo[1,2-a]indol-2-one]	
bound to the amyloid β protein	CN(C)c1ccc(/C=C/C23NC(=O)CCN2c2ccc(Br)cc2C3(C)C)cc1 (centres unmarked) [THK-558, 8-bromo-10a-[2-(4-dimethylamino-phenyl)-vinyl]-10,10-dimethyl 1-3,4,10,10a-tetrahydro-1H-pyrimido[1,2-a]indol-2-one]	
bound to the amyloid β protein	CC1CN2c3ccccc3C(C)(C)C2(/C=C/c2ccc(N(C)C)cc2)NC1=O (centres unmarked) [THK-559, 10a-[2-(4-dimethylamino-phenyl)-vinyl]-3,10,10-trimethyl-3,4,10,10a-tetrahydro-1H-pyrimido[1,2-a]indol-2-one]	
bound to the amyloid β protein	CN(C)c1ccc(/C=C/C23NC(=O)CN2c2ccccc2C3(C)C)cc1 (centres unmarked) [THK-562]	
bound to the amyloid β protein	CCN(CC)c1ccc(/C=C/C23NC(=O)CN2c2ccccc2C3(C)C)cc1 (centres unmarked) [THK-563]	
bound to the amyloid β protein	Cc1ccc2c(c1)C(C)(C)C1(/C=C/C=C/c3ccc(N(C)C)cc3)NC(=O)CCN21 (centres unmarked) [THK-565, 10a-[4-(4-dimethylamino-phenyl)-buta-1,3-dienyl]-8,10,10-trimethyl-3,4,10,10a-tetrahydro-1H-pyrimido[1,2-a]indol-2-one]	
